In patent US8552183B2, “Process for the covalent coupling of two molecules by means of a diels-alder reaction with inverse electron requirement” (Deutsches Krebsforschungszentrum Stiftung des Offentlichen …, priority 2006, dated 2013):

Experiment: DARinv kinetic measurement, tetrazines with dienophile 27
Format: physicochemical
Settings: with dienophile 27, lower part of Table 2 (drawing 12)
Description: (§1) Exploratory kinetic DARinv measurements for the produced dienes and dienophiles show the expected broad reaction behavior.
(§2) Legend: rate constants for the reaction for the reaction DARinv of dienes with dienophiles in liter mol^−1s^−1; n.d. means not yet measured. n.d(+) means: reaction is carried out, however, is too slow for the measurements, DAR adduct is characterized.
(§3) The conduction is very simple since the tetrazines have an absorption maximum of sufficient intensity at 520 nm whose reduction can be very well traced by means of photometry. The kinetic analysis supplies a rate law of second order.
For `O=C(NCCO)c1nnc(C(=O)NCCO)nn1`, the “rate constant k of DARinv” value was 0.008 M⁻¹ s⁻¹.
For `COC(=O)c1nnc(C(=O)OC)nn1`, the “rate constant k of DARinv” value was 0.0048 M⁻¹ s⁻¹.
In the case of `COC(=O)CNC(=O)c1nnc(C(=O)NCC(=O)OC)nn1`, the “rate constant k of DARinv” value is reported as 0.0073 M⁻¹ s⁻¹.

Same assay, conditions: with dienophile 27, upper part of Table 2 (drawing 3)
For `O=C(NCCO)c1nnc(C(=O)NCCO)nn1`, the “rate constant k of DARinv” value was 0.0067 M⁻¹ s⁻¹.
In the case of `COC(=O)c1nnc(C(=O)OC)nn1`, the “rate constant k of DARinv” value is reported as 0.0036 M⁻¹ s⁻¹.
In the case of `COC(=O)CNC(=O)c1nnc(C(=O)NCC(=O)OC)nn1`, the “rate constant k of DARinv” value is reported as 0.0069 M⁻¹ s⁻¹.

Experiment: DARinv kinetic measurement, tetrazines with dienophile 28 (photometry at 520 nm)
Format: physicochemical
Settings: second order
Description: as §1, §2, §3
With `O=C(NCCO)c1nnc(C(=O)NCCO)nn1` the “rate constant k of DARinv” value was 0.023 L/mol/s.
With `COC(=O)c1nnc(C(=O)OC)nn1` the “rate constant k of DARinv” value was 0.022 L/mol/s.
For `COC(=O)CNC(=O)c1nnc(C(=O)N(C)C)nn1`, the “rate constant k of DARinv” value was <10^−4 liter mol^−1s^−1.
In the case of `COC(=O)CNC(=O)c1nnc(C(=O)NCC(=O)OC)nn1`, the “rate constant k of DARinv” value is reported as 0.028 L/mol/s.

Experiment: DARinv kinetic measurement, tetrazines with dienophile 13 (Reppe-ester)
Format: physicochemical
Settings: second order
Description: as §1, §2, §3
With `O=C(NCCO)c1nnc(C(=O)NCCO)nn1` the “rate constant k of DARinv” value was 0.2 M⁻¹ s⁻¹.
In the case of `COC(=O)c1nnc(C(=O)OC)nn1`, the “rate constant k of DARinv” value is reported as 3.4 M⁻¹ s⁻¹.
For `COC(=O)CNC(=O)c1nnc(C(=O)N(C)C)nn1`, the “rate constant k of DARinv” value was 0.014 M⁻¹ s⁻¹.
With `COC(=O)CNC(=O)c1nnc(C(=O)NCC(=O)OC)nn1` the “rate constant k of DARinv” value was 0.028 M⁻¹ s⁻¹.

Experiment: DARinv kinetic measurement, tetrazines with dienophile 14
Format: physicochemical
Settings: second order
Description: as §1, §2, §3
For `O=C(NCCO)c1nnc(C(=O)NCCO)nn1`, the “rate constant k of DARinv” value was 0.69 M⁻¹ s⁻¹.
With `COC(=O)c1nnc(C(=O)OC)nn1` the “rate constant k of DARinv” value was 1.63 M⁻¹ s⁻¹.
For `COC(=O)CNC(=O)c1nnc(C(=O)NCC(=O)OC)nn1`, the “rate constant k of DARinv” value was 0.048 M⁻¹ s⁻¹.

Experiment: DARinv kinetic measurement, tetrazines with dienophile 17
Format: physicochemical
Settings: second order
Description: as §1, §2, §3
In the case of `O=C(NCCO)c1nnc(C(=O)NCCO)nn1`, the “rate constant k of DARinv” value is reported as 0.06 M⁻¹ s⁻¹.
In the case of `COC(=O)c1nnc(C(=O)OC)nn1`, the “rate constant k of DARinv” value is reported as 0.13 M⁻¹ s⁻¹.
With `COC(=O)CNC(=O)c1nnc(C(=O)NCC(=O)OC)nn1` the “rate constant k of DARinv” value was 0.18 M⁻¹ s⁻¹.

Experiment: DARinv kinetic measurement, tetrazines with dienophile 16
Format: physicochemical
Settings: second order
Description: as §1, §2, §3
For `O=C(NCCO)c1nnc(C(=O)NCCO)nn1`, the “rate constant k of DARinv” value was 0.11 M⁻¹ s⁻¹.
In the case of `COC(=O)c1nnc(C(=O)OC)nn1`, the “rate constant k of DARinv” value is reported as 0.44 M⁻¹ s⁻¹.
In the case of `COC(=O)CNC(=O)c1nnc(C(=O)NCC(=O)OC)nn1`, the “rate constant k of DARinv” value is reported as 0.44 M⁻¹ s⁻¹.

Experiment: DARinv kinetic measurement, tetrazines with dienophile 26
Format: physicochemical
Settings: second order
Description: as §1, §2, §3
For `O=C(NCCO)c1nnc(C(=O)NCCO)nn1`, the “rate constant k of DARinv” value was 0.0053 L/mol/s.
With `COC(=O)c1nnc(C(=O)OC)nn1` the “rate constant k of DARinv” value was 0.0028 L/mol/s.
In the case of `COC(=O)CNC(=O)c1nnc(C(=O)N(C)C)nn1`, the “rate constant k of DARinv” value is reported as <10^−4 liter mol^−1s^−1.
For `COC(=O)CNC(=O)c1nnc(C(=O)NCC(=O)OC)nn1`, the “rate constant k of DARinv” value was 0.0056 L/mol/s.

Experiment: DARinv of a methylene-group dienophile, reaction time
Format: physicochemical
Settings: room temperature; reacts very slowly
Description: A twofold substituted double bond as occurring in fatty acids or lipids, only reacts very slowly under normal conditions in the sense of DARinv. A methylene group, such as in the perilla alcohol, also reacts very slowly at room temperature (60 hours) in the sense of the DARinv thereby forming the expected adduct. However, as soon as a double bond is integrated within a carbocyclic ring system, it reacts much more rapidly than dienophile, the reactivity decreasing with increasing ring size, starting with the cyclopropene, and passing through a minimum with cyclohexene. In ring systems greater than seven rings, triple bonds can also react as inverse dienophiles.
In the case of `C=C(C)[C@@H]1CC=C(CO)CC1` [perilla alcohol], the “reaction time of DARinv forming the expected adduct” value is reported as 60 h.
